18 compounds from patent US10638756B2, “Molecules having pesticidal utility, and intermediates, compositions, and processes, related thereto” (Dow AgroSciences LLC, priority 2017, dated 2020) can be followed below.

Broadly, the mortality is the share of the test organisms that died.

The test system of assay [1] is Cabbage Looper (Trichoplusia ni). The experiment in a line: Bioassay on Cabbage Looper (CL), 128-well diet tray assay. In kind it is in vivo. The note with it: 168 h, 50 μg/cm^2 on artificial diet, second instar larvae, five to seven days, read-out: CL % Control (or Mortality) rating. The method, then: (§1) Certain molecules disclosed in this document were tested against BAW and CL using procedures described in the following examples. In the reporting of the results, the “BAW & CL Rating Table” was used (See Table Section).
Bioassays on CL were conducted using a 128-well diet tray assay. One to five second instar CL larvae were placed in each well (3 mL) of the diet tray that had been previously filled with 1 mL of artificial diet to which 50 μg/cm^2 of the test molecule (dissolved in 50 μL of 90:10 acetone-water mixture) had been applied (to each of eight wells) and then allowed to dry. Trays were covered with a clear self-adhesive cover, vented to allow gas exchange, and held at 25° C., 14:10 light-dark for five to seven days. Percent mortality was recorded for the larvae in each well; activity in the eight wells was then averaged. The results are indicated in the table entitled “Table ABC: Biological Results” (See Table Section).

Assay [2] concerns Beet Armyworm (Spodoptera exigua). Nature of the assay: Bioassay on Beet Armyworm (BAW), 128-well diet tray assay. The format is in vivo. The note with it: for mortality at 50 µg/cm2: Spodoptera exigua, 168 h, 50 μg/cm^2 on artificial diet, second instar larvae, five to seven days, read-out: BAW % Control (or Mortality) rating. As to the method:
as §1
Bioassays on BAW were conducted using a 128-well diet tray assay. […] Trays were covered with a clear self-adhesive cover, vented to allow gas exchange, and held at 25° C., 14:10 light-dark for five to seven days. Percent mortality was recorded for the larvae in each well; activity in the eight wells was then averaged. The results are indicated in the table entitled “Table ABC: Biological Results” (See Table Section).

As for `O=C(NNc1cccc(F)n1)c1ccc(/C(F)=C/C(c2cc(Cl)c(Cl)c(Cl)c2)C(F)(F)F)cc1C(F)(F)F` (stereo not drawn) [F34, (Z)—N′-(6-Fluoropyridin-2-yl)-4-(1,4,4,4-tetrafluoro-3-(3,4,5-trichlorophenyl)but-1-en-1-yl)-2-(trifluoromethyl)benzohydrazide], the mortality at 50 µg/cm2 in assay [1] and in assay [2] was 50 to 100% each time.
Consider `Cc1cc(/C(F)=C/C(c2cc(Cl)c(Cl)c(Cl)c2)C(F)(F)F)ccc1C(=O)NNc1ncccn1` (stereo not drawn) [F37, (Z)-2-Methyl-N′-(pyrimidin-2-yl)-4-(1,4,4,4-tetrafluoro-3-(3,4,5-trichlorophenyl)but-1-en-1-yl)benzohydrazide], for which the mortality at 50 µg/cm2 in assay [1] and in assay [2] was 50 to 100% in each case. For the same compound, the “BAW (Table CD-1)” value in assay [2] (0.05 μg/cm^2) came out at 0; in assay [2] (5.0 μg/cm^2) it was 100; in assay [2] (50 μg/cm^2), 100.
`O=C(N/N=C/c1ccccc1)c1ccc(/C(F)=C/C(c2cc(Cl)c(Cl)c(Cl)c2)C(F)(F)F)cc1C(F)(F)F` (stereo not drawn) [F38, N′-((E)-benzylidene)-4-((Z)-1,4,4,4-tetrafluoro-3-(3,4,5-trichlorophenyl)but-1-en-1-yl)-2-(trifluoromethyl)benzohydrazide]: the mortality at 50 µg/cm2 in assay [1] and in assay [2] was 50 to 100% throughout.
As to `CC(C)(C)NNC(=O)c1ccc(/C(F)=C/C(c2cc(Cl)c(Cl)c(Cl)c2)C(F)(F)F)cc1C(F)(F)F` (stereo not drawn) [F40, (Z)—N′-(tert-Butyl)-4-(1,4,4,4-tetrafluoro-3-(3,4,5-trichlorophenyl)but-1-en-1-yl)-2-(trifluoromethyl)benzohydrazide], the mortality at 50 µg/cm2 in assay [1] and in assay [2] was 50 to 100% in each case.
For `CCc1cnc(N(C)NC(=O)c2ccc(/C(F)=C/C(c3cc(Cl)c(Cl)c(Cl)c3)C(F)(F)F)cc2C(F)(F)F)nc1` (stereo not drawn) [F41, (Z)—N′-(5-Ethylpyrimidin-2-yl)-N′-methyl-4-(1,4,4,4-tetrafluoro-3-(3,4,5-trichlorophenyl)but-1-en-1-yl)-2-(trifluoromethyl)benzohydrazide], the mortality at 50 µg/cm2 in assay [1] and in assay [2] was 50 to 100% each time.
`O=C(NNc1ncccn1)c1ccc(/C(F)=C/C(c2ccc(Cl)c(OC(F)(F)F)c2)C(F)(F)F)cc1C(F)(F)F` (stereo not drawn) [F42, (Z)-4-(3-(4-Chloro-3-(trifluoromethoxy)phenyl)-1,4,4,4-tetrafluorobut-1-en-1-yl)-N′-(pyrimidin-2-yl)-2-(trifluoromethyl)benzohydrazide]: the mortality at 50 µg/cm2 in assay [1] and in assay [2] was 50 to 100% in each case.
As to `CN(NC(=O)c1ccc(/C(F)=C/C(c2cc(Cl)c(Cl)c(Cl)c2)C(F)(F)F)cc1Cl)c1ncccn1` (stereo not drawn) [F43, (Z)-2-Chloro-N′-methyl-N′-(pyrimidin-2-yl)-4-(1,4,4,4-tetrafluoro-3-(3,4,5-trichlorophenyl)but-1-en-1-yl)benzohydrazide], the mortality at 50 µg/cm2 in assay [1] and in assay [2] was 50 to 100% throughout.
Regarding `O=C(NNc1nccc(C(F)(F)F)n1)c1ccc(/C(F)=C/C(c2cc(Cl)c(Cl)c(Cl)c2)C(F)(F)F)cc1C(F)(F)F` (stereo not drawn) [F44, (Z)-4-(1,4,4,4-Tetrafluoro-3-(3,4,5-trichlorophenyl)but-1-en-1-yl)-2-(trifluoromethyl)-N′-(4-(trifluoromethyl)pyrimidin-2-yl)benzohydrazide], the mortality at 50 µg/cm2 in assay [1] and in assay [2] was 50 to 100% in each case.
As for `O=C(NNc1ccccc1)c1ccc(/C(F)=C/C(c2cc(Br)c(F)c(Br)c2)C(F)(F)F)cc1C(F)(F)F` (stereo not drawn) [F45, (Z)-4-(3-(3,5-dibromo-4-fluorophenyl)-1,4,4,4-tetrafluorobut-1-en-1-yl)-N′-phenyl-2-(trifluoromethyl)benzohydrazide], the mortality at 50 µg/cm2 in assay [1] and in assay [2] was 50 to 100% in each case.
For the compound `O=C(Nn1cnnc1)c1ccc(/C(F)=C/C(c2cc(Cl)c(Cl)c(Cl)c2)C(F)(F)F)cc1C(F)(F)F` (stereo not drawn) [F48, (Z)-4-(1,4,4,4-Tetrafluoro-3-(3,4,5-trichlorophenyl)but-1-en-1-yl)-N-(4H-1,2,4-triazol-4-yl)-2-(trifluoromethyl)benzamide], the mortality at 50 µg/cm2 in assay [1] and in assay [2] was 0% each time.
For the compound `O=C(NNCC(F)(F)F)c1ccc(/C(F)=C/C(c2cc(Cl)c(Cl)c(Cl)c2)C(F)(F)F)cc1C(F)(F)F` (stereo not drawn) [F49, (Z)-4-(1,4,4,4-tetrafluoro-3-(3,4,5-trichlorophenyl)but-1-en-1-yl)-N′-(2,2,2-trifluoroethyl)-2-(trifluoromethyl)benzohydrazide], the mortality at 50 µg/cm2 in assay [1] and in assay [2] was 50 to 100% throughout.
In the case of `O=C(NNc1ncccn1)c1ccc(/C(F)=C/C(c2ccc(OC(F)(F)F)c(Cl)c2)C(F)(F)F)cc1C(F)(F)F` (stereo not drawn) [F50, (Z)-4-(3-(3-Chloro-4-(trifluoromethoxy)phenyl)-1,4,4,4-tetrafluorobut-1-en-1-yl)-N′-(pyrimidin-2-yl)-2-(trifluoromethyl)benzohydrazide], the mortality at 50 µg/cm2 in assay [1] and in assay [2] was 50 to 100% throughout.
`O=C(Nn1cccc1)c1ccc(/C(F)=C/C(c2cc(Cl)c(Cl)c(Cl)c2)C(F)(F)F)cc1C(F)(F)F` (stereo not drawn) [F51, (Z)—N-(1H-Pyrrol-1-yl)-4-(1,4,4,4-tetrafluoro-3-(3,4,5-trichlorophenyl)but-1-en-1-yl)-2-(trifluoromethyl)benzamide]: the mortality at 50 µg/cm2 in assay [1] and in assay [2] was 50 to 100% in each case.
With `Cc1cc(/C(F)=C/C(c2cc(Cl)c(Cl)c(Cl)c2)C(F)(F)F)ccc1C(=O)NN(C)c1ncccn1` (stereo not drawn) [F55, (Z)—N′,2-Dimethyl-N′-(pyrimidin-2-yl)-4-(1,4,4,4-tetrafluoro-3-(3,4,5-trichlorophenyl)but-1-en-1-yl)benzohydrazide], the mortality at 50 µg/cm2 in assay [1] and in assay [2] was 50 to 100% each time.
Turning to `O=C(NNc1ccncc1)c1ccc(/C(F)=C/C(c2cc(Cl)c(Cl)c(Cl)c2)C(F)(F)F)cc1C(F)(F)F` (stereo not drawn) [F57, (Z)—N′-(Pyridin-4-yl)-4-(1,4,4,4-tetrafluoro-3-(3,4,5-trichlorophenyl)but-1-en-1-yl)-2-(trifluoromethyl)benzohydrazide], the mortality at 50 µg/cm2 in assay [1] and in assay [2] was 50 to 100% throughout.
Turning to `O=C(NNc1ncnc(Cl)n1)c1ccc(/C(F)=C/C(c2cc(Cl)c(Cl)c(Cl)c2)C(F)(F)F)cc1C(F)(F)F` (stereo not drawn) [F58, (Z)—N′-(4-Chloro-1,3,5-triazin-2-yl)-4-(1,4,4,4-tetrafluoro-3-(3,4,5-trichlorophenyl)but-1-en-1-yl)-2-(trifluoromethyl)benzohydrazide], the mortality at 50 µg/cm2 in assay [1] and in assay [2] was 50 to 100% throughout.
As for `CN(NC(=O)c1ccc(/C(F)=C/C(c2cc(Cl)c(Cl)c(Cl)c2)C(F)(F)F)cc1C(F)(F)F)c1ccccn1` (stereo not drawn) [F59, (Z)—N′-Methyl-N′-(pyridin-2-yl)-4-(1,4,4,4-tetrafluoro-3-(3,4,5-trichloro-phenyl)but-1-en-1-yl)-2-(trifluoromethyl)benzohydrazide], the mortality at 50 µg/cm2 in assay [1] and in assay [2] was 50 to 100% each time.
With `CN(NC(=O)c1ccc(/C(F)=C/C(c2ccc(Cl)c(OC(F)(F)F)c2)C(F)(F)F)cc1C(F)(F)F)c1ccccn1` (stereo not drawn) [F60, (Z)-4-(3-(4-Chloro-3-(trifluoromethoxy)phenyl)-1,4,4,4-tetrafluorobut-1-en-1-yl)-N′-methyl-N′-(pyridin-2-yl)-2-(trifluoromethyl)benzohydrazide], the mortality at 50 µg/cm2 in assay [1] and in assay [2] was 50 to 100% throughout.
